Reference: patent publication US20230183215A1, “Notch Inhibitors and Uses Thereof” (StemSynergy Therapeutics, Inc., priority 2020, published 2023)
Structures can show the parent of a compound that is named as a salt.

What was measured:
[1] = test system: OE33 Esophageal Adenocarcinoma cell line; assay: OE33 Colony Formation Assay; assay type: cell-based; details: Homo sapiens, 200 cells/well, compound every 48 hours for 7 days, CellTiter-Glo
Description: OE33 Colony Formation Assay:
The OE33 Esophageal Adenocarcinoma cell line was cultured and plated into 96-well tissue culture plates under sparse conditions (200 cells/well). Test compounds were serially diluted in DMSO and then into culture media (final DMSO concentration=0.1%). Compound/media was then added to cells every 48 hours for a total of 7 days. Clonogenic growth was assessed using the CellTiter-Glo reagent, according to manufacturer (Promega) specifications. Percent inhibition was calculated as the percent of luminescence normalized to control (0.1% DMSO) wells. Nonlinear regression curve fitting was performed using GraphPad Prism software to determine EC50's.

Notch1 = biological target: T1, Notch1 (Homo sapiens, UniProt P46531); assay: Notch1 Reporter Assay (CSL-responsive luciferase, doxycycline-induced Notch-ICD in 293A cells); assay type: cell-based; details: 25 ng/mL Dox, 24 h, luciferase normalized to cell viability
T1 construct: pLV[Tet]-Puro-TRE3G>Notch1-ICD; expressed in transfected cells; host or cells: 293A cells
Description: 293A cells expressing 1) pCMV-Tet-On 3G, 2) pLV[Tet]-Puro-TRE3G>Notch1-ICD, 3) pLV[Tet]-Puro-TRE3G>Notch2-ICD, 4) pLV[Tet]-Puro-TRE3G>Notch3-ICD, and 5) pCSL-RElement-Luc were used. When Doxycycline is added, the Tet-ON gene activates expression of hNotch1ICD, which together with endogenous NTC components binds to CSL responsive elements (pCSL-RElement-Luc) and expresses luciferase. 1×10^4 cells are plated in 100 μL (96-well format). 24 h later, compounds (10 mM stock in DMSO) are diluted in DMSO to 200×, then added (5 ul into 1 mL) to cell culture media containing 50 ng/mL Dox. This is then added 1:1 to cells. Final DMSO=0.25%, Dox=25 ng/mL. After 24 h, media is discarded, and cells are lysed in passive lysis buffer (Promega). Cells are rocked at room temperature for 15 min and then lysate is divided for luciferase assay (Luciferase Assay System, Promega) and cell viability (CellTiter Glo 2.0, Promega). Raw luciferase is normalized to cell viability, and then scaled to DMSO wells. Results are analyzed and IC50's are determined in GraphPad by nonlinear regression curve fitting (4 parameter) of dose response curves.

T1 sequence (P46531 1754-2555 limits assumed): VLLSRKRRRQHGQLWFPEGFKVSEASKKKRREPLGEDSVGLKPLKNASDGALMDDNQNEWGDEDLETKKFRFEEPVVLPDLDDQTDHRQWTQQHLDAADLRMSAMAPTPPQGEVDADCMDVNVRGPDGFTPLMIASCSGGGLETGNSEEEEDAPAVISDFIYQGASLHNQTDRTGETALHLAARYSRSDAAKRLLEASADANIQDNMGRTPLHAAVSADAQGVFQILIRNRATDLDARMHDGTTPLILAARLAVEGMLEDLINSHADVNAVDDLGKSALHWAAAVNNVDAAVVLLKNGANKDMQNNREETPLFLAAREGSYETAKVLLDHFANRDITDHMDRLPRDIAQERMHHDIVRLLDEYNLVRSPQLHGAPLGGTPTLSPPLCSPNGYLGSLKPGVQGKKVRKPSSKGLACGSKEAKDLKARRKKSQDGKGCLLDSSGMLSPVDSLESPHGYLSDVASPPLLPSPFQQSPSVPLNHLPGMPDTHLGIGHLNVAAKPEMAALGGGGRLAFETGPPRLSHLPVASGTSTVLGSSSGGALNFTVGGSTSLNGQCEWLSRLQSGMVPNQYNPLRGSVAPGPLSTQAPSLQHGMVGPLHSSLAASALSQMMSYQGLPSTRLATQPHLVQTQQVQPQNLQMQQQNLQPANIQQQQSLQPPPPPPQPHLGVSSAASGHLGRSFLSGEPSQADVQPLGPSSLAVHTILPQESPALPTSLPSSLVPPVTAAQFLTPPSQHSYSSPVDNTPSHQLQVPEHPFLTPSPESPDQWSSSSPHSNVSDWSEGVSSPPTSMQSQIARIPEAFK

EC50 [1] [nM] | SMILES | IC50 (Notch1) [µM]
1700 | COc1cc(-c2cc(C(F)(F)F)cc3c2n(C)c(=O)n3CC(=O)Nc2cccc(Cl)c2)cc(F)c1OCc1nnc[nH]1 [SSTN-490, 2-(4-(4-((4H-1,2,4-triazol-3-yl)methoxy)-3-fluoro-5-methoxyphenyl)-3-methyl-2-oxo-6-(trifluoromethyl)-2,3-dihydro-1H-benzo[d]imidazol-1-yl)-N-(3-chlorophenyl)acetamide hydrochloride] | 5.5
2100 | COc1cc(-c2cc(C(F)(F)F)cc3c2n(C)c(=O)n3CC(=O)Nc2ccc(Cl)cc2)cc(F)c1OCc1nnc[nH]1 [SSTN-489, 2-(4-(4-((4H-1,2,4-triazol-3-yl)methoxy)-3-fluoro-5-methoxyphenyl)-3-methyl-2-oxo-6-(trifluoromethyl)-2,3-dihydro-1H-benzo[d]imidazol-1-yl)-N-(4-chlorophenyl)acetamide hydrochloride] | 7.9
1400 | COc1cc(-c2cc(C(F)(F)F)cc3c2n(C)c(=O)n3CC(=O)N(C)c2ccc(Cl)cc2)cc(F)c1OCc1nnc[nH]1 [compound 424, 2-(4-(4-((4H-1,2,4-triazol-3-yl)methoxy)-3-fluoro-5-methoxyphenyl)-3-methyl-2-oxo-6-(trifluoromethyl)-2,3-dihydro-1H-benzo[d]imidazol-1-yl)-N-(4-chlorophenyl)-N-methylacetamide hydrochloride] | 3.6
6600 | COc1cccc(NC(=O)Cn2c(=O)n(C)c3c(-c4cc(F)c(OCc5nnc[nH]5)c(OC)c4)cc(C(F)(F)F)cc32)c1 [SSTN-492, 2-(4-(4-((4H-1,2,4-triazol-3-yl)methoxy)-3-fluoro-5-methoxyphenyl)-3-methyl-2-oxo-6-(trifluoromethyl)-2,3-dihydro-1H-benzo[d]imidazol-1-yl)-N-(3-methoxyphenyl)acetamide hydrochloride] | 6.3
7100 | COc1cc(-c2cc(Cl)cc3c2n(C)c(=O)n3CC(=O)Nc2ccc(F)cc2)cc(F)c1OCc1nnc[nH]1 [SSTN-601, 2-(4-(4-((4H-1,2,4-triazol-3-yl)methoxy)-3-fluoro-5-methoxyphenyl)-6-chloro-3-methyl-2-oxo-2,3-dihydro-1H-benzo[d]imidazol-1-yl)-N-(4-fluorophenyl)acetamide] | 10.2
4600 | COc1cc(-c2cc(C(F)(F)F)cc3c2n(C)c(=O)n3CC(=O)Nc2ccccc2Cl)cc(F)c1OCc1nnc[nH]1 [SSTN-491, 2-(4-(4-((4H-1,2,4-triazol-3-yl)methoxy)-3-fluoro-5-methoxyphenyl)-3-methyl-2-oxo-6-(trifluoromethyl)-2,3-dihydro-1H-benzo[d]imidazol-1-yl)-N-(2-chlorophenyl)acetamide hydrochloride] | 11.1
3000 | COc1cc(-c2cc(C(F)(F)F)cc3c2n(C)c(=O)n3CC(=O)Nc2ccc(SC)cc2)cc(F)c1OCc1nnc[nH]1 [SSTN-498, 2-(4-(4-((4H-1,2,4-triazol-3-yl)methoxy)-3-fluoro-5-methoxyphenyl)-3-methyl-2-oxo-6-(trifluoromethyl)-2,3-dihydro-1H-benzo[d]imidazol-1-yl)-N-(4-(methylthio)phenyl)acetamide hydrochloride] | 8.5
3700 | COc1cc(-c2cc(C(F)(F)F)cc3c2n(C)c(=O)n3CC(=O)Nc2cccc(F)c2)cc(F)c1OCc1nnc[nH]1 [SSTN-496, 2-(4-(4-((4H-1,2,4-triazol-3-yl)methoxy)-3-fluoro-5-methoxyphenyl)-3-methyl-2-oxo-6-(trifluoromethyl)-2,3-dihydro-1H-benzo[d]imidazol-1-yl)-N-(3-fluorophenyl)acetamide hydrochloride] | 6
6600 | COc1cc(-c2cc(OC(F)(F)F)cc3c2n(C)c(=O)n3CC(=O)Nc2ccc(F)cc2)cc(F)c1OCc1nnc[nH]1 [SSTN-600, 2-(4-(4-((4H-1,2,4-triazol-3-yl)methoxy)-3-fluoro-5-methoxyphenyl)-3-methyl-2-oxo-6-(trifluoromethoxy)-2,3-dihydro-1H-benzo[d]imidazol-1-yl)-N-(4-fluorophenyl)acetamide hydrochloride salt] | 5.8

Further lines, the molecule ahead of its results:

SMILES | EC50 [1] [nM] | IC50 (Notch1) [µM]
COc1cc(-c2cc(C(F)(F)F)cc3c2n(C)c(=O)n3CC(=O)Nc2ccc(F)cc2)c(F)cc1OCc1nnc[nH]1 [SSTN-603, 2-(4-(4-((4H-1,2,4-triazol-3-yl)methoxy)-2-fluoro-5-methoxyphenyl)-3-methyl-2-oxo-6-(trifluoromethyl)-2,3-dihydro-1H-benzo[d]imidazol-1-yl)-N-(4-fluorophenyl)acetamide] | 3800 | 7.4
COc1cc(-c2cc(C(F)(F)F)cc3c2n(C)c(=O)n3CC(=O)N(C)c2ccc(F)cc2)cc(F)c1OCc1nnc[nH]1 [compound 440, 2-(4-(4-((4H-1,2,4-triazol-3-yl)methoxy)-3-fluoro-5-methoxyphenyl)-3-methyl-2-oxo-6-(trifluoromethyl)-2,3-dihydro-1H-benzo[d]imidazol-1-yl)-N-(4-fluorophenyl)-N-methylacetamide hydrochloride] | 4600 | 3.1
COc1cc(-c2cc(C(F)(F)F)cc3c2n(C)c(=O)n3CC(=O)N(C)c2ccc(C(F)(F)F)cc2)cc(F)c1OCc1nnc[nH]1 [compound 439, 2-(4-(4-((4H-1,2,4-triazol-3-yl)methoxy)-3-fluoro-5-methoxyphenyl)-3-methyl-2-oxo-6-(trifluoromethyl)-2,3-dihydro-1H-benzo[d]imidazol-1-yl)-N-methyl-N-(4-(trifluoromethyl)phenyl)acetamide hydrochloride] | 1200 | 3.5
COc1cc(-c2cc(C(F)(F)F)cc3c2n(C)c(=O)n3CC(=O)N(C)c2cccc(Cl)c2)cc(F)c1OCc1nnc[nH]1 [compound 448, 2-(4-(4-((4H-1,2,4-triazol-3-yl)methoxy)-3-fluoro-5-methoxyphenyl)-3-methyl-2-oxo-6-(trifluoromethyl)-2,3-dihydro-1H-benzo[d]imidazol-1-yl)-N-(3-chlorophenyl)-N-methylacetamide hydrochloride] | 2100 | 2.4
COc1cc(-c2cc(C(F)(F)F)cc3c2n(C)c(=O)n3CC(=O)Nc2cccc(C(F)(F)F)c2)cc(F)c1OCc1nnc[nH]1 [SSTN-495, 2-(4-(4-((4H-1,2,4-triazol-3-yl)methoxy)-3-fluoro-5-methoxyphenyl)-3-methyl-2-oxo-6-(trifluoromethyl)-2,3-dihydro-1H-benzo[d]imidazol-1-yl)-N-(3-(trifluoromethyl)phenyl)acetamide hydrochloride] | 1500 | 4.3
COc1cc(-c2cc(C(F)(F)F)cc3c2n(C)c(=O)n3CC(=O)N(c2ccc(F)cc2)C2CC2)cc(F)c1OCc1nnc[nH]1 [SSTN-543, 2-(4-(4-((4H-1,2,4-triazol-3-yl)methoxy)-3-fluoro-5-methoxyphenyl)-3-methyl-2-oxo-6-(trifluoromethyl)-2,3-dihydro-1H-benzo[d]imidazol-1-yl)-N-cyclopropyl-N-(4-fluorophenyl)acetamide] | 2900 | 4.7
COCc1cccc(NC(=O)Cn2c(=O)n(C)c3c(-c4cc(F)c(OCc5nnc[nH]5)c(OC)c4)cc(C(F)(F)F)cc32)c1 [SSTN-548, 2-(4-(4-((4H-1,2,4-triazol-3-yl)methoxy)-3-fluoro-5-methoxyphenyl)-3-methyl-2-oxo-6-(trifluoromethyl)-2,3-dihydro-1H-benzo[d]imidazol-1-yl)-N-(3-(methoxymethyl)phenyl)acetamide] | 2300 | 8.7
COc1cc(-c2cc(C(F)(F)F)cc3c2n(C)c(=O)n3CC(=O)Nc2cccc(N3CCN(C)CC3)c2)cc(F)c1OCc1nnc[nH]1 [SSTN-559, 2-(4-(4-((4H-1,2,4-triazol-3-yl)methoxy)-3-fluoro-5-methoxyphenyl)-3-methyl-2-oxo-6-(trifluoromethyl)-2,3-dihydro-1H-benzo[d]imidazol-1-yl)-N-(3-(4-methylpiperazin-1-yl)phenyl)acetamide] | 4300 | 19.9
